{"source": "PubChem BioAssay AID1259411", "about": "(Chemical Carcinogenesis Research Information System (CCRIS), 2018)", "test_system": "rodent carcinogenicity bioassays, tumor incidence", "assay": "CCRIS carcinogenicity studies", "summary_of_the_method": "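NCI-built, expert-reviewed records of carcinogenicity and related test outcomes (mutagenicity, tumor promotion/inhibition) compiled from published and report sources, historical span 1985-2011, not updated.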", "note": "Calls of active or inactive are those of the source. The rule behind the calls is not given here."}
{"smiles": "CCN(CC)N=O", "values": [{"measurement": "carcinogen call", "setting": "Species: MOUSE, Strain/Sex: B6C3F1/MALE, Route: INTRAPERITONEAL, Dose: 0, 12 UG ON DAYS 0, 3, 9 AND 15 (STUDY DURATION: 132 WK), Tumor Site: Type of Lesion: LIVER: TUMORS", "result": "active; positive"}, {"measurement": "carcinogen call", "setting": "Species: MOUSE, Strain/Sex: B6C3F2 (BRACHYMORPHIC)/MALE, Route: INTRAPERITONEAL, Dose: 0, 0.02, 0.07 UMOL/G BW IN 10 µL/G BW TRIOCTANOIN ONCE AT 12 D OF AGE (STUDY DURATION: 9 MO), Dose: 0, 0.02, 0.07 UMOL/G BW IN 10 µL/G BW TRIOCTANOIN ONCE AT 12 D OF AGE (STUDY DURATION: 9 MO), Tumor Site: Type of Lesion: LIVER: HEPATOMA", "result": "active; positive"}, {"measurement": "carcinogen call", "setting": "Species: MOUSE, Strain/Sex: BALB/C/FEMALE, Route: INTRAPERITONEAL, Dose: 0, 15, 90 MG/KG ONCE (STUDY DURATION: 18 MONTHS), Dose: 0, 15, 90 MG/KG ONCE (STUDY DURATION: 18 MONTHS), Tumor Site: Type of Lesion: LUNG: TUMOR", "result": "active; positive"}, {"measurement": "carcinogen call", "setting": "Species: MOUSE, Strain/Sex: C3AF1/FEMALE, Route: INTRAPERITONEAL, Dose: 0, 1.5, 3 UG IN 0.01 ML TRIOCTANOIN/G BW INITIAL DOSE GIVEN ON DAY 1 OF AGE AND 3 SUBSEQUENT DOSES GIVEN 3, 9 AND 15 DAY, Dose: 0, 1.5, 3 UG IN 0.01 ML TRIOCTANOIN/G BW INITIAL DOSE GIVEN ON DAY 1 OF AGE AND 3 SUBSEQUENT DOSES GIVEN 3, 9 AND 15 DAY, Tumor Site: Type of Lesion: LIVER: ADENOMA, CARCINOMA, LUNG: TUMORS", "result": "active; positive"}, {"measurement": "carcinogen call", "setting": "Species: MOUSE, Strain/Sex: C3AF1/FEMALE, Route: INTRAPERITONEAL, Dose: 0, 1.5, 3 UG IN 0.01 ML TRIOCTANOIN/G BW INITIAL DOSE GIVEN ON DAY 15 OF AGE AND 3 SUBSEQUENT DOSES GIVEN 3, 9 AND 15 DA, Dose: 0, 1.5, 3 UG IN 0.01 ML TRIOCTANOIN/G BW INITIAL DOSE GIVEN ON DAY 15 OF AGE AND 3 SUBSEQUENT DOSES GIVEN 3, 9 AND 15 DA, Tumor Site: Type of Lesion: LIVER: ADENOMA, CARCINOMA, LUNG: TUMORS", "result": "active; positive"}, {"measurement": "carcinogen call", "setting": "Species: MOUSE, Strain/Sex: C3AF1/FEMALE, Route: INTRAPERITONEAL, Dose: 0, 1.5, 3 UG IN 0.01 ML TRIOCTANOIN/G BW INITIAL DOSE GIVEN ON DAY 42 OF AGE AND 3 SUBSEQUENT DOSES GIVEN 3, 9 AND 15 DA, Dose: 0, 1.5, 3 UG IN 0.01 ML TRIOCTANOIN/G BW INITIAL DOSE GIVEN ON DAY 42 OF AGE AND 3 SUBSEQUENT DOSES GIVEN 3, 9 AND 15 DA, Tumor Site: Type of Lesion: LUNG: TUMORS", "result": "active; positive"}, {"measurement": "carcinogen call", "setting": "Species: MOUSE, Strain/Sex: C3AF1/MALE, Route: INTRAPERITONEAL, Dose: 0, 1.5, 3 UG IN 0.01 ML TRIOCTANOIN/G BW INITIAL DOSE GIVEN ON DAY 1 OF AGE AND 3 SUBSEQUENT DOSES GIVEN 3, 9 AND 15 DAY, Dose: 0, 1.5, 3 UG IN 0.01 ML TRIOCTANOIN/G BW INITIAL DOSE GIVEN ON DAY 1 OF AGE AND 3 SUBSEQUENT DOSES GIVEN 3, 9 AND 15 DAY, Tumor Site: Type of Lesion: LIVER: ADENOMA, CARCINOMA, LUNG: TUMORS", "result": "active; positive"}, {"measurement": "carcinogen call", "setting": "Species: MOUSE, Strain/Sex: C3AF1/MALE, Route: INTRAPERITONEAL, Dose: 0, 1.5, 3 UG IN 0.01 ML TRIOCTANOIN/G BW INITIAL DOSE GIVEN ON DAY 15 OF AGE AND 3 SUBSEQUENT DOSES GIVEN 3, 9 AND 15 DA, Dose: 0, 1.5, 3 UG IN 0.01 ML TRIOCTANOIN/G BW INITIAL DOSE GIVEN ON DAY 15 OF AGE AND 3 SUBSEQUENT DOSES GIVEN 3, 9 AND 15 DA, Tumor Site: Type of Lesion: LIVER: ADENOMA, CARCINOMA, LUNG: TUMORS", "result": "active; positive"}, {"measurement": "carcinogen call", "setting": "Species: MOUSE, Strain/Sex: C3AF1/MALE, Route: INTRAPERITONEAL, Dose: 0, 1.5, 3 UG IN 0.01 ML TRIOCTANOIN/G BW INITIAL DOSE GIVEN ON DAY 42 OF AGE AND 3 SUBSEQUENT DOSES GIVEN 3, 9 AND 15 DA, Dose: 0, 1.5, 3 UG IN 0.01 ML TRIOCTANOIN/G BW INITIAL DOSE GIVEN ON DAY 42 OF AGE AND 3 SUBSEQUENT DOSES GIVEN 3, 9 AND 15 DA, Tumor Site: Type of Lesion: LIVER: ADENOMA, CARCINOMA, LUNG: TUMORS", "result": "active; positive"}, {"measurement": "carcinogen call", "setting": "Species: MOUSE, Strain/Sex: C3H/FEMALE, Route: TRANSPLACENTAL, Dose: 0, 0.5 MMOL IN 0.9% STERILE SALINE (51 MG/KG) ON DAY 16 OF GESTATION (STUDY DURATION: LIFETIME)", "result": "inactive; negative"}, {"measurement": "carcinogen call", "setting": "Species: MOUSE, Strain/Sex: C3H/FEMALE, Route: TRANSPLACENTAL, Dose: 0, 0.5 MMOL IN 0.9% STERILE SALINE (51 MG/KG) ON DAY 19 OF GESTATION (STUDY DURATION: LIFETIME), Tumor Site: Type of Lesion: LIVER: CARCINOMA, LUNG: TUMOR", "result": "active; positive"}, {"measurement": "carcinogen call", "setting": "Species: MOUSE, Strain/Sex: C3H/MALE, Route: INTRAPERITONEAL, Dose: 0, 12 UG ON DAYS 0, 3, 9 AND 15 (STUDY DURATION: 132 WK), Tumor Site: Type of Lesion: LIVER: TUMORS", "result": "active; positive"}, {"measurement": "carcinogen call", "setting": "Species: MOUSE, Strain/Sex: C3H/MALE, Route: TRANSPLACENTAL, Dose: 0, 0.5 MMOL IN 0.9% STERILE SALINE (51 MG/KG) ON DAY 16 OF GESTATION (STUDY DURATION: LIFETIME)", "result": "inactive; negative"}, {"measurement": "carcinogen call", "setting": "Species: MOUSE, Strain/Sex: C3H/MALE, Route: TRANSPLACENTAL, Dose: 0, 0.5 MMOL IN 0.9% STERILE SALINE (51 MG/KG) ON DAY 19 OF GESTATION (STUDY DURATION: LIFETIME), Tumor Site: Type of Lesion: LIVER: CARCINOMA, LUNG: CARCINOMA", "result": "active; positive"}, {"measurement": "carcinogen call", "setting": "Species: MOUSE, Strain/Sex: C57BL/6J/FEMALE, Route: INTRAPERITONEAL, Dose: 0, 15, 90 MG/KG ONCE (STUDY DURATION: 18 MONTHS), Dose: 0, 15, 90 MG/KG ONCE (STUDY DURATION: 18 MONTHS), Tumor Site: Type of Lesion: LUNG: TUMOR", "result": "active; positive"}, {"measurement": "carcinogen call", "setting": "Species: MOUSE, Strain/Sex: C57BL/MALE, Route: INTRAPERITONEAL, Dose: 0, 12 UG ON DAYS 0, 3, 9 AND 15 (STUDY DURATION: 132 WK)", "result": "inactive; negative"}, {"measurement": "carcinogen call", "setting": "Species: MOUSE, Strain/Sex: EU-PIM-1/FEMALE, Route: GAVAGE, Dose: 0, 1, 3 MG/KG 1/D FOR 38 WK (STUDY DURATION: 38 WK), Dose: 0, 1, 3 MG/KG 1/D FOR 38 WK (STUDY DURATION: 38 WK), Tumor Site: Type of Lesion: LIVER: HEMANGIOSARCOMA, LYMPHATIC SYSTEM: LYMPHOMA", "result": "active; positive"}, {"measurement": "carcinogen call", "setting": "Species: MOUSE, Strain/Sex: EU-PIM-1/MALE, Route: GAVAGE, Dose: 0, 1, 3 MG/KG 1/D FOR 38 WK (STUDY DURATION: 38 WK), Dose: 0, 1, 3 MG/KG 1/D FOR 38 WK (STUDY DURATION: 38 WK), Tumor Site: Type of Lesion: LIVER: HEMANGIOSARCOMA", "result": "active; positive"}, {"measurement": "carcinogen call", "setting": "Species: MOUSE, Strain/Sex: SWISS/MALE, Route: INTRAGASTRIC, Dose: 0, 80, 40 MG/KG IN NORMAL SALINE ADMINISTERED WITH A 4 WK GAP BETWEEN EACH DOSE, (STUDY DURATION: 24 WK), Dose: 0, 80, 40 MG/KG IN NORMAL SALINE ADMINISTERED WITH A 4 WK GAP BETWEEN EACH DOSE, (STUDY DURATION: 24 WK), Tumor Site: Type of Lesion: LUNG: TUMOR", "result": "active; positive"}, {"measurement": "carcinogen call", "setting": "Species: MOUSE, Strain/Sex: SWR/FEMALE, Route: INTRAPERITONEAL, Dose: 0, 15, 90 MG/KG ONCE (STUDY DURATION: 18 MONTHS), Dose: 0, 15, 90 MG/KG ONCE (STUDY DURATION: 18 MONTHS), Tumor Site: Type of Lesion: LUNG: TUMOR", "result": "active; positive"}, {"measurement": "carcinogen call", "setting": "Species: RABBIT, Route: ORAL, Tumor Site: Type of Lesion: LIVER", "result": "active; positive"}, {"measurement": "carcinogen call", "setting": "Species: RAT, Route: INTRAPERITONEAL, RECTAL, Tumor Site: Type of Lesion: LIVER", "result": "active; positive"}, {"measurement": "carcinogen call", "setting": "Species: RAT, Route: INTRAVENOUS, Tumor Site: Type of Lesion: KIDNEY", "result": "active; positive"}, {"measurement": "carcinogen call", "setting": "Species: RAT, Route: ORAL, Tumor Site: Type of Lesion: LIVER, ESOPHAGUS, KIDNEY, NASAL CAVITY, Tumor Site: Type of Lesion: LIVER, ESOPHAGUS, KIDNEY, NASAL CAVITY", "result": "active; positive"}, {"measurement": "carcinogen call", "setting": "Species: RAT, Strain/Sex: F344/FEMALE, Route: INTRAVESICULAR, Dose: 0, 2.5 MG IN 0.2 ML ETHANOL: DEIONIZED WATER (1:3) 2/WK FOR 25 WK (TOTAL DOSE 1.2 MMOL) (STUDY DURATION: LIFESPAN), Tumor Site: Type of Lesion: LIVER: HEMANGIOSARCOMA, ESOPHAGUS: TUMOR", "result": "active; positive"}, {"measurement": "carcinogen call", "setting": "Species: RAT, Strain/Sex: F344/FEMALE, Route: ORAL, Dose: 0, 18 MG/L IN DEIONIZED DRINKING WATER DURING WK 1, 5, AND 9 (STUDY DURATION: 121 WK), Tumor Site: Type of Lesion: HEMATOPOIETIC SYSTEM: LEUKEMIA", "result": "active; positive"}, {"measurement": "carcinogen call", "setting": "Species: RAT, Strain/Sex: WISTAR/MALE, Route: ORAL, Dose: 0, 0.033, 0.066, 0.132, 0.264, 0.528, 1.056, 1.584, 2.112, 2.640, 3.168, 4.224, 5.280, 6.336, 8.448, 16.896 PPM IN DRINK, Dose: 0, 0.033, 0.066, 0.132, 0.264, 0.528, 1.056, 1.584, 2.112, 2.640, 3.168, 4.224, 5.280, 6.336, 8.448, 16.896 PPM IN DRINK, Tumor Site: Type of Lesion: ESOPHAGUS: TUMOR, LIVER HEPATOCELLULAR CARCINOMA", "result": "active; positive"}]}
